ChEMBL document CHEMBL1201862, “PubChem BioAssay data set” (2004)
Active and inactive are the calls of the source.

Key:
[1] = Luminescence Cell-Based Dose Retest to Confirm Inhibitors of Cancer Stem Cells. [Related pubchem assays (depositor defined):AID2717, AID2721]; format: functional; settings: Homo sapiens
[2] = biological target: T1, Replicative DNA helicase DnaB (Mycobacterium tuberculosis, UniProt P9WMR3); assay: DnaB intein splicing inhibitors, dose response, biochemical, cell-free fluorescence (AID 449749); format: functional
T1 sequence (P9WMR3 whole entry): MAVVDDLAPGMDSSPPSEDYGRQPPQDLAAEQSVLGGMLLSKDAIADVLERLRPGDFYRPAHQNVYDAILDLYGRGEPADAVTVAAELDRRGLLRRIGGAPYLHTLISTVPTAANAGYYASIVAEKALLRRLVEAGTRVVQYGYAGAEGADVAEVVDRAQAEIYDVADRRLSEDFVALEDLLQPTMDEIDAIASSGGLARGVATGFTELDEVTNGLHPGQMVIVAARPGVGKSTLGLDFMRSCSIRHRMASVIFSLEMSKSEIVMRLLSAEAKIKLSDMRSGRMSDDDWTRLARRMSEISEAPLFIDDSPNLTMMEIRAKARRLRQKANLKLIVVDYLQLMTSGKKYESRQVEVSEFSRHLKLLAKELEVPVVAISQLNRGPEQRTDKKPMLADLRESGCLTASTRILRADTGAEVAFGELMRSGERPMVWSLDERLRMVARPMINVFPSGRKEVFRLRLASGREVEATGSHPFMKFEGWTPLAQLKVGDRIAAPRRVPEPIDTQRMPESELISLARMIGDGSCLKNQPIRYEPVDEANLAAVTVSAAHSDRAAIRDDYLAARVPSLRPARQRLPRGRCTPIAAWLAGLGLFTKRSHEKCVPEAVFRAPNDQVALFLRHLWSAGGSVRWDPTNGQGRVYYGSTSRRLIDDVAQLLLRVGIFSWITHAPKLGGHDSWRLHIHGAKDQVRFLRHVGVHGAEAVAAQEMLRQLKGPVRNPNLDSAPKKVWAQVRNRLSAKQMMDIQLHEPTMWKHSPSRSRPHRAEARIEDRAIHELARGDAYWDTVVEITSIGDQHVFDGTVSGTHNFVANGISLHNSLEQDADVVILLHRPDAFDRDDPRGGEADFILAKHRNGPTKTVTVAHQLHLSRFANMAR

[3] = Trypanosoma cruzi growth suppression in host cells – NIH3T3 host cells, beta-gal luminescence, confirmation (AID 2044); format: functional, cell-based;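 note: intracellular parasites grown in NIH/3T3 mouse fibroblasts as host cells; luminescent beta-galactosidase reporter signal from transgenic T. cruzi replicating inside host cells; inhibitors lower the luminescence signal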
[4] = biological target: T2, Heat shock factor protein 1 (Mus musculus, UniProt P38532); assay: decrease of HSF1-responsive luciferase luminescence – cell-based, NIH3T3, dose retest, confirmation (AID 2382); format: functional;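 note: NIH3T3 fibroblasts with HSF1-driven luciferase reporter stressed by proteasome inhibitor MG132; luminescence from HSF1-driven luciferase expression after 8 hours of MG132 stress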
T2 sequence (P38532 whole entry): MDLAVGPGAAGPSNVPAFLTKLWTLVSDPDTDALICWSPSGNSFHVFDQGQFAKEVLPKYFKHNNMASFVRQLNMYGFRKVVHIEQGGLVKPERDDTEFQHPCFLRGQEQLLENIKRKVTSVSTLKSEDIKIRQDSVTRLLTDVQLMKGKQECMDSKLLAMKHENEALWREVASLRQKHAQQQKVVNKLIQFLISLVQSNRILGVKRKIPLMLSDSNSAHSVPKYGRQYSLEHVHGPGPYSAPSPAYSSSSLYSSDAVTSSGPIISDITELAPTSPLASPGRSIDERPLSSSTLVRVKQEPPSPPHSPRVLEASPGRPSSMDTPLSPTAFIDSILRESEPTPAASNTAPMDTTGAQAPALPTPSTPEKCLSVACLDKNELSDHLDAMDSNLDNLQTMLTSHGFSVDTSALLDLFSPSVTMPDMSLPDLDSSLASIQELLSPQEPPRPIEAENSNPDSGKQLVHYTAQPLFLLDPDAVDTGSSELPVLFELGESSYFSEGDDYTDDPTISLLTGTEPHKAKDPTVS

[5] = NIH3T3 cell viability loss – ATP luminescence, mouse fibroblasts, counter-screen, dose response (AID 2010); format: functional, cell-based;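 note: cells exposed to compound for about 90 hours before reading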
Protein RecA = biological target: T3, Protein RecA (Mycobacterium tuberculosis, UniProt P9WHJ3); assay: Fluorescence Cell-Free Homogeneous Dose Retest to Identify Inhibitors of RecA-Intein Splicing Activity. [Related pubchem assays (depositor defined):AID2097, AID2223, AID489010, AID492950]; format: functional
T3 sequence (P9WHJ3 whole entry): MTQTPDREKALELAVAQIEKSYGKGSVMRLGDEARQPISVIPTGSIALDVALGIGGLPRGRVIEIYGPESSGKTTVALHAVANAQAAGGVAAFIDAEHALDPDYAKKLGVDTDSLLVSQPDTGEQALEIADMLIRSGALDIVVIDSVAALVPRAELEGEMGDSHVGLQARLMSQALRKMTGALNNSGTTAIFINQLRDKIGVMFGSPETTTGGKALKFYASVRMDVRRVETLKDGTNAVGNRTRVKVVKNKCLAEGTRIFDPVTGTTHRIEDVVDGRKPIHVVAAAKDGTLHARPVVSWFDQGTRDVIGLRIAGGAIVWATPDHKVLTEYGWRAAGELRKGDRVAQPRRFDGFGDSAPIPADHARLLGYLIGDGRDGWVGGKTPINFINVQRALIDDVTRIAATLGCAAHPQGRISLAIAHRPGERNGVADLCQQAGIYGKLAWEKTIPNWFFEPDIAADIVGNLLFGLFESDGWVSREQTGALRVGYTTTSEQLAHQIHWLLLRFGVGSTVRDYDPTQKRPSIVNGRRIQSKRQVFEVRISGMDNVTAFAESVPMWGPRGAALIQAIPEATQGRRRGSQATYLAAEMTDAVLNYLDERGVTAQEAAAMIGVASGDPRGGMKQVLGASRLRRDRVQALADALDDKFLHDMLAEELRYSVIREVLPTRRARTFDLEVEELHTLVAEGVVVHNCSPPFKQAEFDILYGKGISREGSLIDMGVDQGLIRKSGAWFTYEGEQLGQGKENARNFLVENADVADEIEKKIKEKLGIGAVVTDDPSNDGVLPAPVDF

[6] = luciferase reporter signal suppression in cells – H4 neuroglioma cells, luminescence, dose response (AID 1990); format: functional, cell-based
[7] = Luminescence Cell-Based Dose Response HTS to Identify Inhibitors of 5'UTR Stem-Loop Driven Prion Protein mRNA Translation in H4 Neuroglioblastoma Cells. [Related pubchem assays: 1827 (Project Summary), 1813 (Primary HTS)]; format: functional
BJ [8] = assay: BJ-TERT-LT-ST fibroblast viability loss – cell-based, RAS-independent, luminescence, dose response (AID 1935); format: functional; settings: Homo sapiens;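 note: BJ fibroblasts immortalized with TERT plus LT and ST oncogenes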
[9] = alpha-synuclein stem-loop luciferase translation blockers – H4 neuroglioma cells, luminescence, confirmation (AID 1988); format: functional, cell-based
BJ [10] = assay: cells; format: functional, cell-based; settings: Homo sapiens
[11] = DRD fibroblast viability loss – cell-based, non-viral oncogenic, luminescence, dose response (AID 1934); format: functional; settings: Homo sapiens
BJ [12] = assay: BJ-TERT fibroblast viability loss – cell-based, RAS-independent, luminescence, dose response (AID 1933); format: functional; settings: Homo sapiens
[13] = P. falciparum Dd2 growth inhibitors, dose response, SYBR Green, cherry-picked samples (AID 1159567); format: functional, cell-based
[14] = biological target: T4, Polyadenylate-binding protein 1 (Homo sapiens, UniProt P11940); assay: MLLE domain peptide-binding blockers, IC50 – biochemical, fluorescence polarization, FITC-PAM2 peptide, dose response (AID 602259); format: functional; settings: read-out: IC50_Mean
T4 sequence (P11940 whole entry, the tested form may be a part): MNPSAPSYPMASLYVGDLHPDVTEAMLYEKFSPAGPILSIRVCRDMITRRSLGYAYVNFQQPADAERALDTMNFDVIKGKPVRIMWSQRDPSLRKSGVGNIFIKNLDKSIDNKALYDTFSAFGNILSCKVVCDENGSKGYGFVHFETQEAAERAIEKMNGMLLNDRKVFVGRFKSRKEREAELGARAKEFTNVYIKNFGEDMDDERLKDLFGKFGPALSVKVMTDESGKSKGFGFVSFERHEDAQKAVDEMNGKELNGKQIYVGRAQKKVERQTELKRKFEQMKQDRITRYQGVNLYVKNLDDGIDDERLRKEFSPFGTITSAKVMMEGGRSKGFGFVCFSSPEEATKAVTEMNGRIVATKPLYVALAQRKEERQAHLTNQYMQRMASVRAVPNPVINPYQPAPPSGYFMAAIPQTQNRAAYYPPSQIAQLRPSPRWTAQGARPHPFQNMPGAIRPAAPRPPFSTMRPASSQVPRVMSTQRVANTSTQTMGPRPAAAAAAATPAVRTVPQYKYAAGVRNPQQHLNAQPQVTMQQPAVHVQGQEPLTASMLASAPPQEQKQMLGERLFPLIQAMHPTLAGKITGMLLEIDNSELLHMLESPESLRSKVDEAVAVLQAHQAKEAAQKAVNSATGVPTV

[15] = biological target: T4, Polyadenylate-binding protein 1; assay: MLLE binding blockers, Cy5 peptide tracer – biochemical, fluorescence polarization, Cy5-PAM2 peptide, secondary, miRNA deadenylation inhibitor project, dose response (AID 602260); format: functional; settings: read-out: IC50_Mean
Cytochrome P450 1A2 = biological target: T5, Cytochrome P450 1A2 (Homo sapiens, UniProt P05177);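 note: PubChem cytochrome P450 panel assay, CYP1A2 panel member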
T5 sequence (P05177 whole entry): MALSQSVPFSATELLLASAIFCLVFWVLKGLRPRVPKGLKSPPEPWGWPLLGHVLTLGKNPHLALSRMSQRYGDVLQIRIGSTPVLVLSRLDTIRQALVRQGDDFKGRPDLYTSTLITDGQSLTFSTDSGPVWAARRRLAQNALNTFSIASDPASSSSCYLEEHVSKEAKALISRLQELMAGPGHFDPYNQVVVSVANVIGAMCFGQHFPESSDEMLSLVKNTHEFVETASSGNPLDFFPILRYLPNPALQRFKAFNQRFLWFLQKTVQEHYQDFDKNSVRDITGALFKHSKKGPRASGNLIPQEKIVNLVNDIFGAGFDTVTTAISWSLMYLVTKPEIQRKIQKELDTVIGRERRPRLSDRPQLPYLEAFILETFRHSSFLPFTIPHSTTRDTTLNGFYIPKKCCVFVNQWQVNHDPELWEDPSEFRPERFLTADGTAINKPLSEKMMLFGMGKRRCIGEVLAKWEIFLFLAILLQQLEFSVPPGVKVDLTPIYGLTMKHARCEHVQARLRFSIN

Cytochrome P450 2D6 = Cytochrome P450 2D6 (Homo sapiens, UniProt P10635);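 note: CYP2D6 member of a cytochrome P450 panel assay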
Sequence of Cytochrome P450 2D6 (P10635 whole entry): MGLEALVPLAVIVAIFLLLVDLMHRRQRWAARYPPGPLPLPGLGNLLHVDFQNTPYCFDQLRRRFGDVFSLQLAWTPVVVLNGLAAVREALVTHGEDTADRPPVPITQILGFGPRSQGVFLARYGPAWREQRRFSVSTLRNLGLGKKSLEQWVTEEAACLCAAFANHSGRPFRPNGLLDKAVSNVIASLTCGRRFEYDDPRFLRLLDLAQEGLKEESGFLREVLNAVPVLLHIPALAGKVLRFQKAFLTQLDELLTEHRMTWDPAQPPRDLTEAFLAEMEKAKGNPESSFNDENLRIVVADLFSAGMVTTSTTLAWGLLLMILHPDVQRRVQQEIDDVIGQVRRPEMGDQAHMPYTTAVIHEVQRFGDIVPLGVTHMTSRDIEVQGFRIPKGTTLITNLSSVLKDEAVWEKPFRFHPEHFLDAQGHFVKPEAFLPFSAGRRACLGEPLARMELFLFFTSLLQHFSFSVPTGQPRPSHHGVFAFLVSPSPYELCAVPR

Cytochrome P450 3A4 = Cytochrome P450 3A4 (Homo sapiens, UniProt P08684);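 note: CYP3A4 tested as one member of a cytochrome P450 panel screen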
Sequence of Cytochrome P450 3A4 (P08684 whole entry): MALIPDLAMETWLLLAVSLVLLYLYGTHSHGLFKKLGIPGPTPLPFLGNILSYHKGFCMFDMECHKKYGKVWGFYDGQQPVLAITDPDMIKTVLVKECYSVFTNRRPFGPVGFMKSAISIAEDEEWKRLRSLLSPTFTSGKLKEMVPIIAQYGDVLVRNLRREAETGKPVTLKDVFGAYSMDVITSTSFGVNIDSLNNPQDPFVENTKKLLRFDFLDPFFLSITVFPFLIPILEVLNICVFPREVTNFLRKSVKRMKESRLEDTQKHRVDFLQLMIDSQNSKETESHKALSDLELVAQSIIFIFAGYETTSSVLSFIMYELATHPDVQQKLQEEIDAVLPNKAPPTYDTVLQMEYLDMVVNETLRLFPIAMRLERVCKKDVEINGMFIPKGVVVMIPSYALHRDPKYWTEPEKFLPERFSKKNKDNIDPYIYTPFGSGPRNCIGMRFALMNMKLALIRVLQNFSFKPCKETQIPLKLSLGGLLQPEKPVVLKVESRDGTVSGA

CNc1ccccc1C(C)(C)c1cc(-c2cc(C)cc(C)c2)no1
AC50 [1]: 13.3 µM (active)

O=C(CCl)N1N=C(c2cccs2)CC1c1ccco1 (stereo not drawn)
AC50 [2]: 25.1 µM (active)
EC50 [3]: 1.98 µM (active)
EC50 [4]: 6.29 µM (active)
EC50 [5]: 4.92 µM (active)
EC50 (Protein RecA): 4.21 µM (active)

COC(=O)C1=C(c2cc3ccccc3o2)C[C@@H]2CC[C@H]1N2C(=O)N1CCCCC1
EC50 [6]: > 120 µM (not active)
EC50 [7]: 12.1 µM (active)
EC50 (BJ [8]): 20.9 µM (active)
EC50 [9]: 10.5 µM (active)
EC50 (BJ [10]): 28.8 µM (active)
EC50 [11]: 3.8 µM (inconclusive)
EC50 (BJ [12]): 4.58 µM (active)

C[C@H](CO)N1C[C@H](C)[C@@H](CN(C)CC2CCCCC2)Oc2ccc(NC(=O)Nc3ccc(F)cc3)cc2CC1=O
AC50 [13]: 6.76 µM (active)

O=C(Nc1ccc(Nc2ccccc2)cc1)c1cccc(F)c1
AC50 [1]: 3.9 µM (active)

Cc1c(NC(=O)Oc2ccccc2)sc(=S)n1C
IC50 [14]: > 66 µM (inactive)
IC50 [15]: > 66 µM (inactive)

COC(=O)C(C#N)C(c1cccnc1)c1c(C)n[nH]c1O (stereo not drawn)
AC50 [2]: 3.08 µM (active)
EC50 (Protein RecA): 1.2 µM (active)

C[C@@H]1CCC(=O)N(CC[C@H](Sc2ccc(Br)cc2)c2ccccc2)CC1
AC50 [1]: 5.03 µM (active)

Fc1ccc2c(c1)c1nnc(S)nc1n2CCc1ccccc1
IC50 [14]: > 66 µM (inactive)
IC50 [15]: > 66 µM (inactive)

Cc1ccccc1S(=O)(=O)N1CC(=O)N2[C@H](CO)[C@H](c3ccc(C#CC4CC4)cc3)[C@@H]2C1
AC50 [13]: 8.89 µM (active)

Clc1cccc(Nc2nc(-c3ccncc3)cs2)c1
EC50 [3]: 0.714 µM (active)
EC50 [5]: 5.87 µM (active)
AC50 [1]: 3.5 µM (active)

O=C(Nc1cccc(F)c1)N1CC(=O)N2[C@H](C1)[C@@H](c1ccc(C#CC3CC3)cc1)[C@@H]2CO
AC50 [13]: 8.07 µM (active)

C[C@H](CO)N1C[C@H](C)[C@H](CN(C)S(=O)(=O)c2cccs2)OCc2ccccc2-c2c(n(C)c3ccccc23)C1=O
AC50 [13]: 26.1 µM (active)

Cc1cccc2c1NC(=O)/C2=C\C(=O)c1cccs1
AC50 [1]: 5.12 µM (active)

O=[N+]([O-])c1cccc(NC(S)=Nc2nc(-c3ccccc3Cl)cs2)c1
IC50 [14]: > 66 µM (inactive)
IC50 [15]: > 66 µM (inactive)

O=C(CSc1nc2ccccc2c(=O)n1CCCO)NCc1ccccc1
AC50 (Cytochrome P450 1A2): 31.6 µM (inconclusive)
IC50 [14]: > 66 µM (inactive)
AC50 (Cytochrome P450 2D6): 39.8 µM (inconclusive)
IC50 [15]: > 66 µM (inactive)
AC50 (Cytochrome P450 3A4): 3.55 µM (inconclusive)

Cc1ccc2nc(O)c(CN(c3cccc(C)c3C)S(=O)(=O)c3ccccc3)cc2c1
EC50 (BJ [8]): > 150 µM (not active)
EC50 (BJ [10]): 46.6 µM (active)
EC50 [11]: 69.9 µM (active)
EC50 (BJ [12]): 78.2 µM (active)

Fc1ccc(SCCc2ccncc2)cc1
IC50 [14]: > 66 µM (inactive)
IC50 [15]: > 66 µM (inactive)

C=CCn1c(SCc2c(C)noc2C)nc2sc3c(c2c1=O)CCC(C)C3 (stereo not drawn)
EC50 (BJ [8]): > 150 µM (inconclusive)
EC50 (BJ [10]): 4.12 µM (inconclusive)
EC50 [11]: 9.03 µM (active)
EC50 (BJ [12]): 23.8 µM (active)

COc1cc(/C=C(\C#N)c2nc3ccccc3o2)ccc1O
AC50 [2]: > 380 µM (inactive)
EC50 (Protein RecA): 2.41 µM (active)

Fc1cccc(-c2cc3nc4c(c(NCc5ccco5)n3n2)CCCC4)c1
AC50 [1]: 6.81 µM (active)

CCC(=O)Nc1ccc2c(c1)OC[C@@H](C)N(Cc1cccc(F)c1)C[C@@H](C)[C@H](OC)CN(C)C2=O
AC50 [13]: 3.64 µM (active)

CC(C)c1nc(SCC(=O)Nc2ccc(N3CCOCC3)cc2)c2ccccc2n1
IC50 [14]: > 66 µM (inactive)
IC50 [15]: > 66 µM (inactive)

Cc1cccc(NC(=S)N/N=C/c2c[nH]c3ccccc23)c1
AC50 [1]: 0.704 µM (active)
